{"source": "patent US10463664B2", "about": "“Inhibitors of HSV nucleotidyl transferases and uses therefor” (Saint Louis University, priority 2013, dated 2019)", "key": {"HCMV strain AD169": {"test_system": "HCMV strain AD169", "assay": "HCMV plaque reduction assay in HFFs", "format": "cell-based, human cytomegalovirus", "conditions": "10 days, read-out: EC50 against HCMV, plaque reduction assay", "protocol": "HCMV plaque reduction EC50 and toxicity assays. Low passage primary HFFs were infected with HCMV strain AD169 in the presence of serial dilutions of the compounds from 0.032 to 100 μM. Ten days later the monolayers were stained with 1% neutral red solution in PBS. After rinsing, plaques were counted using a stereomicroscope and the EC50 was interpolated from the data. Cytotoxicity was measured using a plate-based assay in which compounds were added to HFFs at 0.032 to 100 μM. At the end of the incubation period, plates were stained for 1 h with a neutral red solution in PBS. The stain was then removed, the plates rinsed in PBS and dried, and dye internalized by viable cells was determined at OD550. CC50 values were interpolated from the data.\nCompounds #41, 46, 49, 55, 56, and 59 and the FDA-approved, anti-HCMV drug ganciclovir were subsequently evaluated with plaque reduction and toxicity assays in HFFs. HFFs were infected with HCMV in the presence of serial dilutions of the compounds. After 10 days the cultures were stained with neutral red and plaques were counted. Compound cytotoxicity for uninfected cells was determined in the same manner except that neutral red uptake by viable cells was measured by optical density. […] The TI values for the five NTS inhibitors of HCMV ranged from 5 for compound #46 to 17 for #55 and 59. Therefore, NTS inhibitors can suppress HCMV replication in addition to inhibiting the HSVs."}, "Vero cells": {"test_system": "Vero cells", "assay": "CytoTox-Glo cellular lysis assay in Vero cells", "format": "cell-based", "conditions": "24 h; read-out: Vero cell toxicity CTG CC50", "protocol": "(§1) Quantitative toxicity measurements were conducted for all compounds that suppressed HSV replication by approximately 2 login or more at 5 μM plus a number of compounds with lesser inhibitory activity for comparison. Toxicity was assessed by measuring release of intracellular proteases into the culture medium due to cellular lysis. […] Consistent with the subjective assessments of toxicity, all compounds selected for quantitative toxicity assessment had CC50 values ≥50 μM by both the MTT and cellular lysis assays (Table 1)."}, "[1]": {"test_system": "TK-deficient mutant of HSV-2 strain 333, ΔTK-", "assay": "Replication inhibition of thymidine kinase-deficient HSV-2 mutant in Vero cells", "format": "cell-based, herpes simplex virus 2", "conditions": "50 μM, 24 h", "protocol": "(§2) Cells and Viruses. Vero cells were maintained in Dulbecco's modified Eagle's medium (DMEM) containing 3% newborn calf serum, 3% bovine growth serum, 2 mM L-glutamine and 100 IU/mL penicillin and 0.1 mg/mL streptomycin (P/S). Primary human foreskin fibroblasts (ATCC #CRL2429™) were cultured in DMEM containing 10% FBS, 2 mM L-glutamine plus P/S, and used at passage 3 to 12. HSV-1 #6 and HSV-2 #1 are de-identified clinical isolates from the Saint Louis University Hospital. Stocks were prepared after a single passage in cell culture and were titered by standard plaque assay (Knipe and Spang, 1982). Wild-type HSV-1 and HSV-2 used in FIG. 6 were laboratory strains 17 and 333, respectively. The HSV-1 TK-deficient mutant, ΔTK contains a 361-bp deletion between the BglII-SmaI restriction enzyme sites in the UL23 open reading frame of strain 17 (Korom, et al., 2013). The TK-deficient mutant of HSV-2 strain 333, ΔTK-, contains a 180-bp KpnI-KpnI deletion in the UL23 open reading frame that abrogates TK activity (McDermott, et al, 1984). ΔTK- was the generous gift of Jim Smiley. Virus stocks were grown and titered on Vero cells (Morrison and Knipe, 1996).\n(§3) Inhibition of acyclovir-resistant HSV-1 and HSV-2 mutants. […] HSV TK-deficient mutants are therefore insensitive to ACV. […] Vero cells were infected with laboratory strains of HSV-1 or HSV-2 and engineered TK-deficient mutants of the same strains. […] Similar patterns were seen when the compounds were used at 5 μM (FIG. 8B), although inhibition by compound #30 at 5 μM was too low to definitively interpret."}, "in vitro": {"assay": "in vitro", "conditions": "human", "method_in_brief": "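Primary HFF, 1.0×10^4/well, exposed 24 h to 0.78–100 μM compound in 1% DMSO. Viability read by MTT (0.25 mg/mL, 60 min, 570 nm) and by protease-release lysis luminescence. CC50 by non-linear fit of percent viability.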"}, "HSV-1 strain KOS": {"test_system": "HSV-1 strain KOS", "assay": "Resistance evolution by passage of HSV-1 KOS in presence of inhibitor", "format": "cell-based, herpes simplex virus 1", "conditions": "compared with unselected KOS", "protocol": "Cultures were scraped and collected when virus-induced cytopathic effect was evident (24-72 h). […] This process was repeated three times, maintaining the independent lineages. […] Inhibition was determined by subtracting a lineage's titer in the presence of inhibitor from its titer in the presence of diluent control."}, "[2]": {"assay": "CytoTox-Glo cellular lysis assay in Vero cells", "format": "cell-based", "conditions": "African green monkey, Vero cells, read-out: Vero cell toxicity CTG CC50", "protocol": "as §1"}, "[3]": {"assay": "MTT mitochondrial toxicity assay in Vero cells", "format": "cell-based", "conditions": "African green monkey, Vero cells, read-out: Vero cell toxicity MTT CC50"}, "[4]": {"test_system": "HSV-1 TK-deficient mutant ΔTK (strain 17)", "assay": "Replication inhibition of thymidine kinase-deficient HSV-1 mutant in Vero cells", "format": "cell-based, herpes simplex virus 1", "conditions": "50 μM, 24 h", "protocol": "as §2, §3"}, "HSV-1": {"test_system": "HSV-1", "assay": "Pre-incubation of viral inoculum with compound (virus infectivity)", "format": "cell-based, herpes simplex virus 1", "protocol": "Tests were carried out to determine if the early event inhibited by compound #46 was a pre- or post-entry event. A high titer HSV-1 stock was pre-incubated with compound #46 at 50 μM or was incubated with an equivalent amount of DMSO-containing medium for 1 hour at 37° C. Then the viral stocks with compound or DMSO were diluted such that Vero cells were infected at a moi of 0.1 as usual. […] A standard inhibition assay using compound #46 at 50 μM was conducted in parallel as a positive control, and viral titers were determined by plaque assay at 24 hours post-infection. The standard conditions of infection at 50 μM caused a 5.5 log10 suppression of HSV-1 replication relative to the DMSO pre-treatment sample."}}, "note": "Like-named read-outs stand apart in the source and are kept apart here."}
{"smiles": "CC(=O)NC(CCc1ccc(Cl)c(Cl)c1)c1cccc(O)c(=O)c1", "note": "(stereo not shown) [Compound 55]", "values": [{"measurement": "EC50", "setting": "HCMV strain AD169", "result": 0.47, "unit": "µM"}, {"measurement": "CC50", "setting": "Vero cells", "result": "> 100", "unit": "µM"}]}
{"smiles": "Cc1cc(C2CCCCC2)n(O)c(=O)c1", "note": "[Compound 41, Ciclopirox, reference compound]", "values": [{"measurement": "Inhibition of TK-mutant HSV-2 (in words)", "setting": "[1]", "result": "efficiently inhibited"}, {"measurement": "CC50 at 24 h", "setting": "in vitro", "result": "> 100", "unit": "µM"}, {"measurement": "EC50", "setting": "HCMV strain AD169; Human betaherpesvirus 5, AD169, 240 h", "result": 0.33, "unit": "µM"}, {"measurement": "Sensitivity of inhibitor-selected lineages after 3 rounds of growth (in words)", "setting": "HSV-1 strain KOS", "result": "remained as sensitive"}, {"measurement": "CC50 at 24 h", "setting": "[2]", "result": "> 100", "unit": "µM"}, {"measurement": "CC50 at 24 h", "setting": "[3]", "result": "> 50", "unit": "µM"}, {"measurement": "Inhibition of TK-mutant HSV-1 (in words)", "setting": "[4]", "result": "efficiently inhibited"}]}
{"smiles": "CCOc1ccc(-c2c3cc(O)c(=O)cc-3oc3cc(O)c(O)cc23)cc1", "note": "[Compound 30]", "values": [{"measurement": "Inhibition of TK-mutant HSV-2 (in words)", "setting": "[1]", "result": "efficiently inhibited"}, {"measurement": "CC50", "setting": "Vero cells", "result": "> 100", "unit": "µM"}, {"measurement": "Inhibition of TK-mutant HSV-1 (in words)", "setting": "[4]", "result": "efficiently inhibited"}]}
{"smiles": "Nc1nc2c(ncn2COCCO)c(=O)[nH]1", "note": "[ACV, Acyclovir, reference compound]", "values": [{"measurement": "Inhibition of TK-mutant HSV-2 (in words)", "setting": "[1]", "result": "little effect"}, {"measurement": "CC50 at 24 h", "setting": "in vitro", "result": "> 100", "unit": "µM"}, {"measurement": "CC50 at 24 h", "setting": "[2]", "result": "> 100", "unit": "µM"}, {"measurement": "CC50 at 24 h", "setting": "[3]", "result": "> 100", "unit": "µM"}, {"measurement": "Inhibition of TK-mutant HSV-1 (in words)", "setting": "[4]", "result": "little effect"}]}
{"smiles": "CC(C)c1ccc(O)c(=O)c(O)c1", "note": "[Compound 46, Beta-thujaplicinol]", "values": [{"measurement": "Inhibition of TK-mutant HSV-2 (in words)", "setting": "[1]", "result": "efficiently inhibited"}, {"measurement": "Suppression of HSV-1 replication, standard conditions of infection", "setting": "HSV-1; 50 μM throughout, relative to DMSO pre-treatment sample", "result": 5.5, "unit": "log10"}, {"measurement": "Effect of pre-incubation on virions / virus entry (in words)", "setting": "HSV-1; pre-incubation 50 μM, 1 hour, 37° C.", "result": "not directly toxic to virions"}, {"measurement": "EC50", "setting": "HCMV strain AD169", "result": 1.3, "unit": "µM"}, {"measurement": "Sensitivity of inhibitor-selected lineages after 3 rounds of growth (in words)", "setting": "HSV-1 strain KOS", "result": "remained as sensitive"}, {"measurement": "CC50", "setting": "Vero cells", "result": "> 100", "unit": "µM"}, {"measurement": "Inhibition of TK-mutant HSV-1 (in words)", "setting": "[4]", "result": "efficiently inhibited"}]}
{"smiles": "CC(C)=CCc1ccc(O)c(=O)cc1C(C)C", "note": "[Compound 49, Nootkatin]", "values": [{"measurement": "EC50", "setting": "HCMV strain AD169", "result": 0.45, "unit": "µM"}, {"measurement": "CC50", "setting": "Vero cells", "result": "> 100", "unit": "µM"}]}
{"smiles": "C=C(C)C1CCc2c(c(C)cc(O)c(=O)c2O)C1", "note": "(stereo not shown) [Compound 56, Manicol]", "values": [{"measurement": "EC50", "setting": "HCMV strain AD169", "result": 2.66, "unit": "µM"}, {"measurement": "CC50", "setting": "Vero cells", "result": "~100", "unit": "µM"}]}
